Earlier results in US20250352520A1, “USE OF DEXPRAMIPEXOLE FOR THE TREATMENT OF EOSINOPHILIC COPD” (Areteia Therapeutics, Inc., priority 2024, published 2025).
Read-outs that look alike come from different tables or passages of the source.

B1: mepolizumab: a humanized monoclonal antibody against interleukin-5 (antibody, chains of the INN, looked up, V domains shown)
VH: QVTLRESGPALVKPTQTLTLTCTVSGFSLTSYSVHWVRQPPGKGLEWLGVIWASGGTDYNSALMSRLSISKDTSRNQVVLTMTNMDPVDTATYYCARDPPSSLLRLDYWGRGTPVTVSS
VL: DIVMTQSPDSLAVSLGERATINCKSSQSLLNSGNQKNYLAWYQQKPGQPPKLLIYGASTRESGVPDRFSGSGSGTDFTLTISSLQAEDVAVYYCQNVHSFPFTFGGGTKLEIK

Tests used:
[1] = severe, uncontrolled, eosinophilic asthma; cited from earlier work
[2] = patients with COPD, cited from earlier work
[3] = cited from earlier work
[4] = COPD; cited from earlier work

Molecule | eosinophils [1] | exacerbations [1] | lung function [1] | blood eosinophils ([2]; all doses, throughout the trial) | exacerbations [2] | asthma exacerbations [3] | biomarkers of asthma control [3] | blood eosinophil counts [4] | lung function and clinical outcomes [4]
benralizumab: an anti-interleukin-5 receptor monoclonal antibody | effectively depleted eosinophils | decreased exacerbations | improved lung function | substantial depletion of blood eosinophils | failed to show statistically significant reduction of exacerbations | – | – | – | –
B1 | – | – | – | – | – | significantly reduced asthma exacerbations | associated with improvements in biomarkers of asthma control, including eosinophil counts | effectively reduced blood eosinophil counts | not associated with consistent improvements in lung function and clinical outcomes
